Here are results for 8 compounds from patent publication US3939157A, “3-Benzyl-7-substituted acetamido-3-cephem-4-carboxylic acids and halogenated benzyl derivatives” (Beecham Group Limited, priority 1972, dated 1976).

Common to all, as to type: cell-based
One experiment relates to B.subtilis. Put plainly: minimum inhibitory concentration (MIC) in agar, B.subtilis. The note with it: Bacillus subtilis. The procedure:
(§1) The minimum concentrations of this compound required to inhibit growth of five typical Gram-positive bacteria are tabulated below.
(§2) The minimum inhibitory concentrations (MIC) of the free acid (XIV) required to inhibit the growth of five typical Gram-positive bacteria are tabulated below:
(§3) t-Butyl 3-ethyl-7-(2-thienylacetamido)-3-cephem-4-carboxylate (23 mg) was treated with trifluoracetic acid at room temperature for 1 hour. The excess trifluoroacetic acid was distilled off azeotropically with dry benzene to give the free acid (XVII) as a gum (17 mg) .nu.max (CHCl3) 1770, 1705, 1680 cm^^-1 The minimum inhibitory concentrations of this compound required to inhibit the growth of five typical Gram-positive bacteria are tabulated below:
(§4) The cephem ester (XX) (28 mg) was dissolved in trifluoroacetic acid (0.8 ml) and allowed to stand at room temperature for 30 min.

The test system of another experiment is Staph.aureus Oxford. Put plainly: minimum inhibitory concentration (MIC) in agar, Staph.aureus Oxford. The note with it: Staphylococcus aureus. The protocol: as §1, §2, §3, §4
A further experiment relates to Staph.aureus Russell. The experiment in a line: minimum inhibitory concentration (MIC) in agar, Staph.aureus Russell. Particulars: Staphylococcus aureus. The protocol: as §1, §2, §3, §4
For the next experiment, the system named is Strep.pneumoniae CN33. The experiment in a line: minimum inhibitory concentration (MIC) in agar, Strep.pneumoniae CN33. Particulars: Streptococcus pneumoniae. The protocol:
as §1, §2, §3, §4

In the next experiment the test system is β-haemolytic Strep.CN10. Put plainly: minimum inhibitory concentration (MIC) in agar, β-haemolytic Strep.CN10. The protocol:
as §1, §2, §3, §4

In brackets after ≈: the same amount, converted by molar mass.

In general, MIC refers to the least concentration at which growth counts as inhibited. Low values mean greater potency, high ones weaker potency.

In the case of `CCC1=C(C(=O)O)N2C(=O)C(NC(=O)Cc3cccs3)[C@H]2SC1` (stereo partly shown) [XVII, 3-ethyl-7-(2-thienylacetamido)-3-cephem-4-carboxylic acid], the MIC in the experiment with B.subtilis, in the experiment on Staph.aureus Oxford, against Staph.aureus Russell, against Strep.pneumoniae CN33 and against β-haemolytic Strep.CN10 was 2.5 µg/mL (≈ 7.09 µM) in each case.
With `O=C(Cc1cccs1)NC1C(=O)N2C(C(=O)O)=C(Cc3ccc(F)cc3)CS[C@H]12` (stereo partly shown) [XII, 3-p-fluorobenzyl-7-(2-thienylacetamido)-3-cephem-4-carboxylic acid], the MIC was found to be 0.5 µg/mL (≈ 1.16 µM) with B.subtilis; 0.25 µg/mL (≈ 0.578 µM) in the experiment with Staph.aureus Oxford; 10 µg/mL (≈ 23.1 µM) against Staph.aureus Russell; 0.25 µg/mL (≈ 0.578 µM) against Strep.pneumoniae CN33; 0.25 µg/mL (≈ 0.578 µM) against β-haemolytic Strep.CN10.
For the compound `O=C(Cc1cccs1)NC1C(=O)N2C(C(=O)O)=C(CC3CCCCO3)CS[C@H]12` (stereo partly shown) [XXII, 3-(2-tetrahydropyranylmethyl)-7-(2-thienylacetamido)-3-cephem-4-carboxylicacid], the MIC is 0.5 µg/mL (≈ 1.18 µM) against B.subtilis; 0.25 µg/mL (≈ 0.592 µM) in the experiment with Staph.aureus Oxford; 10 µg/mL (≈ 23.7 µM) with Staph.aureus Russell; 0.25 µg/mL (≈ 0.592 µM) against Strep.pneumoniae CN33; 0.25 µg/mL (≈ 0.592 µM) in the experiment with β-haemolytic Strep.CN10.
Regarding `O=C(Cc1cccs1)NC1C(=O)N2C(C(=O)O)=C(CCc3ccccc3)CS[C@H]12` (stereo partly drawn) [XXVI, 3-β-phenylethyl-7-(2-thienylacetamido) -3-cephem-4-carboxylic acid], the MIC against B.subtilis was found to be 0.05 µg/mL (≈ 0.117 µM); with Staph.aureus Oxford, 0.05 µg/mL (≈ 0.117 µM); in the experiment on Staph.aureus Russell, 1.5 µg/mL (≈ 3.5 µM); in the experiment with Strep.pneumoniae CN33, 0.15 µg/mL (≈ 0.35 µM); in the experiment on β-haemolytic Strep.CN10, 0.02 µg/mL (≈ 0.0467 µM).
Regarding `COC(=O)C1=C(Cc2ccccc2)CS[C@@H]2C(NC(=O)COc3ccccc3)C(=O)N12` (stereo partly shown) [II, Methyl 3-benzyl-7-phenoxyacetamido-3-cephem-4-carboxylate], the MIC with B.subtilis worked out at 1.95 µg/mL (≈ 4.45 µM); in the experiment on Staph.aureus Oxford, 0.98 µg/mL (≈ 2.23 µM); in the experiment on Staph.aureus Russell, 15.6 µg/mL (≈ 35.6 µM); in the experiment on Strep.pneumoniae CN33, 0.98 µg/mL (≈ 2.23 µM); against β-haemolytic Strep.CN10 it was 1.95 µg/mL (≈ 4.45 µM).
For the compound `O=C(Cc1cccs1)NC1C(=O)N2C(C(=O)O)=C(Cc3ccccc3)CSC12` (stereo not shown) [VI], the MIC came to 0.2 µg/mL (≈ 0.482 µM) with B.subtilis; 0.05 µg/mL (≈ 0.121 µM) in the experiment with Staph.aureus Oxford; 10 µg/mL (≈ 24.1 µM) in the experiment on Staph.aureus Russell; 0.2 µg/mL (≈ 0.482 µM) in the experiment on Strep.pneumoniae CN33; 0.2 µg/mL (≈ 0.482 µM) in the experiment on β-haemolytic Strep.CN10.
With `O=C(O)CSCC(=O)NC1C(=O)N2C(C(=O)O)=C(Cc3ccc(F)cc3)CSC12` (stereo not shown) [XIV, 3-p-fluorobenzyl-7-carboxymethylthioacetamido-3-cephem-4-carboxylate], the minimum inhibitory concentration (MIC) against B.subtilis is 100 µg/mL (≈ 227 µM); against Staph.aureus Oxford, 5 µg/mL (≈ 11.4 µM); in the experiment with Staph.aureus Russell it was 50 µg/mL (≈ 114 µM); in the experiment with Strep.pneumoniae CN33, 25 µg/mL (≈ 56.8 µM); with β-haemolytic Strep.CN10 it was 25 µg/mL (≈ 56.8 µM).
For the compound `N[C@@H](C(=O)NC1C(=O)N2C(C(=O)O)=C(Cc3ccccc3)CS[C@H]12)c1ccccc1` (stereo partly drawn) [VII; R = H, 3-Benzyl-7-[D-α-aminophenylacetamido]-3-cephem-4-carboxylic acid], the MIC with B.subtilis came to 0.25 µg/mL (≈ 0.59 µM); in the experiment with Staph.aureus Oxford it was 0.1 µg/mL (≈ 0.236 µM); with Staph.aureus Russell, 2.5 µg/mL (≈ 5.9 µM); against Strep.pneumoniae CN33 it was 1 µg/mL (≈ 2.36 µM); in the experiment on β-haemolytic Strep.CN10 it was 0.1 µg/mL (≈ 0.236 µM).
